This assay concerns the target T1, human GnRH receptor (Homo sapiens, UniProt P30968).
T1 sequence (P30968 1-328): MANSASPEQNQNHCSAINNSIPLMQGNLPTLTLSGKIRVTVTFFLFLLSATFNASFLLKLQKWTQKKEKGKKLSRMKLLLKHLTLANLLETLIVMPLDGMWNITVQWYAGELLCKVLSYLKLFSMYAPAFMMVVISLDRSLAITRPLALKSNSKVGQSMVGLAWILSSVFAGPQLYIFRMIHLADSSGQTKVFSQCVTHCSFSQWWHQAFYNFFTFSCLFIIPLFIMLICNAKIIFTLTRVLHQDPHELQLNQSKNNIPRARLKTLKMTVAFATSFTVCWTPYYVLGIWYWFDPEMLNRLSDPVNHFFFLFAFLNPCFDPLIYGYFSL
Description: IP-One HTRF assay with buserelin (at EC80) stimulation. Format: cell-based. Particulars: CHO cells stably expressing human GnRH receptor, read-out: Potency in IP-One HTRF assay, given as IC50. The method, boiled down:
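Ten-point duplicate titrations (20 μM to 1 nM) were fitted by 4-parameter model to normalized 665/620 nm HTRF ratios, 0% = no compound, 100% = no agonist. Assay measured IP1 accumulation in human GnRH-R CHO cells stimulated 1 h at 37° C with EC80 buserelin, then lysed 1 h at 22° C.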
With `N#Cc1ccc(S(=O)(=O)N2c3ccc(C(=O)NCc4ncccc4Cl)cc3C3(CCS(=O)(=O)CC3)C2C2CC2)cc1` (stereo not shown) [Example 70, N-[(3-chloropyridin-2-yl)methyl]-1-[(4-cyanophenyl)sulfonyl]-2-cyclopropyl-1,2,2′,3′,5′,6′-hexahydrospiro[indole-3,4′-thiopyran]-5-carboxamide 1′,1′-dioxide], the IC50 (usually the concentration that inhibits the measured activity by half) worked out at 63 nM.

For the compound `N#Cc1ccc(S(=O)(=O)N2c3ccc(C(=O)Nc4cncc(Cl)c4)cc3C3(CCS(=O)(=O)CC3)C2C2CC2)cc1` (stereo not shown) [Example 71, N-(5-chloropyridin-3-yl)-1-[(4-cyanophenyl)sulfonyl]-2-cyclopropyl-1,2,2′,3′,5′,6′-hexahydrospiro[indole-3,4′-thiopyran]-5-carboxamide 1′,1′-dioxide], the IC50 amounted to 52 nM.

Consider `N#Cc1ccc(S(=O)(=O)N2c3ccc(C(=O)NCc4ccccc4C(F)(F)F)cc3C3(CCS(=O)(=O)CC3)C2C2CC2)cc1` (stereo not shown) [Example 72, 1-[(4-cyanophenyl)sulfonyl]-2-cyclopropyl-N-[2-(trifluoromethyl)benzyl]-1,2,2′,3′,5′,6′-hexahydrospiro[indole-3,4′-thiopyran]-5-carboxamide 1′,1′-dioxide], for which the IC50 came to 13 nM.

As to `N#Cc1ccc(S(=O)(=O)N2c3ccc(C(=O)Nc4ncco4)cc3C3(CCS(=O)(=O)CC3)C2C2CC2)cc1` (stereo not shown) [Example 73, 1-[(4-cyanophenyl)sulfonyl]-2-cyclopropyl-N-(1,3-oxazol-2-yl)-1,2,2′,3′,5′,6′-hexahydrospiro[indole-3,4′-thiopyran]-5-carboxamide 1′,1′-dioxide], the IC50 is 130 nM.

With `N#Cc1ccc(S(=O)(=O)N2c3ccc(C(=O)Nc4ccccc4Cl)cc3C3(CCS(=O)(=O)CC3)C2C2CC2)cc1` (stereo not shown) [Example 74, N-(2-chlorophenyl)-1-[(4-cyanophenyl)sulfonyl]-2-cyclopropyl-1,2,2′,3′,5′,6′-hexahydrospiro[indole-3,4′-thiopyran]-5-carboxamide 1′,1′-dioxide], the IC50 amounted to 66 nM.

Regarding `N#Cc1cccc(S(=O)(=O)N2c3ccc(C(=O)NCc4ccccc4Cl)cc3C3(CCS(=O)(=O)CC3)C2C2CC2)c1` (stereo not shown) [Example 76, N-(2-chlorobenzyl)-1-[(3-cyanophenyl)sulfonyl]-2-cyclopropyl-1,2,2′,3′,5′,6′-hexahydrospiro[indole-3,4′-thiopyran]-5-carboxamide 1′,1′-dioxide], the IC50 is 44 nM.

Regarding `N#Cc1cccc(S(=O)(=O)N2c3ccc(C(=O)Nc4cncc(Cl)c4)cc3C3(CCS(=O)(=O)CC3)C2C2CC2)c1` (stereo not shown) [Example 77, N-(5-chloropyridin-3-yl)-1-[(3-cyanophenyl)sulfonyl]-2-cyclopropyl-1,2,2′,3′,5′,6′-hexahydrospiro[indole-3,4′-thiopyran]-5-carboxamide 1′,1′-dioxide], the IC50 was determined as 700 nM.

In the case of `N#Cc1cccc(S(=O)(=O)N2c3ccc(C(=O)Nc4ncco4)cc3C3(CCS(=O)(=O)CC3)C2C2CC2)c1` (stereo not shown) [Example 78, 1-[(3-cyanophenyl)sulfonyl]-2-cyclopropyl-N-(1,3-oxazol-2-yl)-1,2,2′,3′,5′,6′-hexahydrospiro[indole-3,4′-thiopyran]-5-carboxamide 1′,1′-dioxide], the IC50 worked out at 706 nM.

As for `N#Cc1cccc(S(=O)(=O)N2c3ccc(C(=O)NCc4ncccc4C(F)(F)F)cc3C3(CCS(=O)(=O)CC3)C2C2CC2)c1` (stereo not shown) [Example 79, 1-[(3-cyanophenyl)sulfonyl]-2-cyclopropyl-N-{[3-(trifluoromethyl)pyridin-2-yl]methyl}-1,2,2′,3′,5′,6′-hexahydrospiro[indole-3,4′-thiopyran]-5-carboxamide 1′,1′-dioxide], the IC50 is 64 nM.

Consider `N#Cc1cccc(S(=O)(=O)N2c3ccc(C(=O)Nc4ccon4)cc3C3(CCS(=O)(=O)CC3)C2C2CC2)c1` (stereo not shown) [Example 80, 1-[(3-cyanophenyl)sulfonyl]-2-cyclopropyl-N-(1,2-oxazol-3-yl)-1,2,2′,3′,5′,6′-hexahydrospiro[indole-3,4′-thiopyran]-5-carboxamide 1′,1′-dioxide], for which the IC50 stood at 218 nM.

On to `O=C(NCc1ccccc1Cl)c1ccc2c(c1)C1(CCS(=O)(=O)CC1)C(C1CC1)N2S(=O)(=O)c1cccc(OC(F)(F)F)c1` (stereo not shown) [Example 81, N-(2-chlorobenzyl)-2-cyclopropyl-1-{[3-(trifluoromethoxy)phenyl]sulfonyl}-1,2,2′,3′,5′,6′-hexahydrospiro[indole-3,4′-thiopyran]-5-carboxamide 1′,1′-dioxide], for which the IC50 was found to be 437 nM.

`COC(=O)c1cccc(NC(=O)c2ccc3c(c2)C2(CCS(=O)(=O)CC2)C(C2CC2)N3S(=O)(=O)c2cccc(OC(F)(F)F)c2)c1` (stereo not shown) [Example 82, methyl 3-{[(2-cyclopropyl-1′,1′-dioxido-1-{[3-(trifluoromethoxy)phenyl]sulfonyl}-1,2,2′,3′,5′,6′-hexahydrospiro[indole-3,4′-thiopyran]-5-yl)carbonyl]amino}benzoate]: the IC50 stood at 609 nM.

On to `O=C(O)c1cccc(NC(=O)c2ccc3c(c2)C2(CCS(=O)(=O)CC2)C(C2CC2)N3S(=O)(=O)c2cccc(OC(F)(F)F)c2)c1` (stereo not shown) [Example 83, 3-{[(2-cyclopropyl-1′,1′-dioxido-1-{[3-(trifluoromethoxy)phenyl]sulfonyl}-1,2,2′,3′,5′,6′-hexahydrospiro[indole-3,4′-thiopyran]-5-yl)carbonyl]amino}benzoic acid], for which the IC50 turned out to be 140 nM.

Regarding `O=C(NCc1ncccc1C(F)(F)F)c1ccc2c(c1)C1(CCS(=O)(=O)CC1)C(C1CC1)N2S(=O)(=O)c1cccc(OC(F)(F)F)c1` (stereo not shown) [Example 84, 2-cyclopropyl-1-{[3-(trifluoromethoxy)phenyl]sulfonyl)-N-{[3-(trifluoromethyl)pyridin-2-yl]methyl}-1,2,2′,3′,5′,6′-hexahydrospiro[indole-3,4′-thiopyran]-5-carboxamide 1′,1′-dioxide], the IC50 was 309 nM.

On to `Cc1cncc(NC(=O)c2ccc3c(c2)C2(CCS(=O)(=O)CC2)C(C2CC2)N3S(=O)(=O)c2cccc(OC(F)(F)F)c2)c1` (stereo not shown) [Example 85, 2-cyclopropyl-N-(5-methylpyridin-3-yl)-1-{[3-(trifluoromethoxy)phenyl]sulfonyl}-1,2,2′,3′,5′,6′-hexahydrospiro[indole-3,4′-thiopyran]-5-carboxamide 1′,1′-dioxide], for which the IC50 came out at 804 nM.

In the case of `O=C(NCc1ccccc1Cl)c1ccc2c(c1)C1(CCS(=O)(=O)CC1)C(C1CC1)N2S(=O)(=O)c1cccc(OC(F)F)c1` (stereo not shown) [Example 86, N-(2-chlorobenzyl)-2-cyclopropyl-1-{[3-(difluoromethoxy)phenyl]sulfonyl}-1,2,2′,3′,5′,6′-hexahydrospiro[indole-3,4′-thiopyran]-5-carboxamide 1′,1′-dioxide], the IC50 came out at 196 nM.

Take `O=C(NCc1ncccc1C(F)(F)F)c1ccc2c(c1)C1(CCS(=O)(=O)CC1)C(C1CC1)N2S(=O)(=O)c1cccc(OC(F)F)c1` (stereo not shown) [Example 87, 2-cyclopropyl-1-{[3-(difluoromethoxy)phenyl]sulfonyl}-N-{[3-(trifluoromethyl)pyridin-2-yl]methyl}-1,2,2′,3′,5′,6′-hexahydrospiro[indole-3,4′-thiopyran]-5-carboxamide 1′,1′-dioxide]: the IC50 is 143 nM.

As to `O=C(Nc1cncc(Cl)c1)c1ccc2c(c1)C1(CCS(=O)(=O)CC1)C(C1CC1)N2S(=O)(=O)c1cccc(OC(F)F)c1` (stereo not shown) [Example 88, N-(5-chloropyridin-3-yl)-2-cyclopropyl-1-{[3-(difluoromethoxy)phenyl]sulfonyl}-1,2,2′,3′,5′,6′-hexahydrospiro[indole-3,4′-thiopyran]-5-carboxamide 1′,1′-dioxide], the IC50 came to 262 nM.

For the compound `COC(=O)c1cccc(NC(=O)c2ccc3c(c2)C2(CCS(=O)(=O)CC2)C(C2CC2)N3S(=O)(=O)c2cccc(OC(F)F)c2)c1` (stereo not shown) [Example 89, methyl 3-{[(2-cyclopropyl-1-{[3-(difluoromethoxy)phenyl]sulfonyl}-1′,1′-dioxido-1,2,2′,3′,5′,6′-hexahydrospiro[indole-3,4′-thiopyran]-5-yl)carbonyl]amino}benzoate], the IC50 came out at 134 nM.

Regarding `O=C(NCc1ccccc1C(F)F)c1ccc2c(c1)C1(CCS(=O)(=O)CC1)C(C1CC1)N2S(=O)(=O)c1ccc(OC(F)F)cc1` (stereo not shown) [Example 91, 2-cyclopropyl-1-{[4-(difluoromethoxy)phenyl]sulfonyl}-N-[2-(difluoromethyl)benzyl]-1,2,2′,3′,5′,6′-hexahydrospiro[indole-3,4′-thiopyran]-5-carboxamide 1′,1′-dioxide], the IC50 was 5.9 nM.

`O=C(NCc1ccccc1C(F)(F)F)c1ccc2c(c1)C1(CCS(=O)(=O)CC1)C(C1CC1)N2S(=O)(=O)c1ccc(OC(F)F)cc1` (stereo not shown) [Example 92, 2-cyclopropyl-1-{[4-(difluoromethoxy)phenyl]sulfonyl}-N-[2-(trifluoromethyl)benzyl]-1,2,2′,3′,5′,6′-hexahydrospiro[indole-3,4′-thiopyran]-5-carboxamide 1′,1′-dioxide]: the IC50 came to 31 nM.

As for `O=C(NCc1ncccc1C(F)(F)F)c1ccc2c(c1)C1(CCS(=O)(=O)CC1)C(C1CC1)N2S(=O)(=O)c1ccc(OC(F)F)cc1` (stereo not shown) [Example 93, 2-cyclopropyl-1-{[4-(difluoromethoxy)phenyl]sulfonyl}-N-{[3-(trifluoromethyl)pyridin-2-yl]methyl}-1,2,2′,3′,5′,6′-hexahydrospiro[indole-3,4′-thiopyran]-5-carboxamide 1′,1′-dioxide], the IC50 came out at 53 nM.

The record behind these values is patent publication US20140357655A1, “SPIROINDOLINE DERIVATIVES AS GONADOTROPIN- RELEASING HORMONE RECEPTOR ANTAGONISTS” (Bayer Intellectual Property GmbH, priority 2012, published 2014).
